Test results from US10034886B2, “GLP-1 receptor modulators” (Celgene International II SÀRL, priority 2014, dated 2018).

Each molecule was assayed against T1, GLP-1R (Homo sapiens, UniProt P43220) (assay: EC20 GLP-1(9-36) PAM cAMP assay: dose response of compound in the presence of fixed concentration of GLP-1(9-36)). Conditions: dose response of compound in presence of fixed concentration of GLP-1(9-36), GLP-1R CRE-bla CHO-K1 cells, read-out: EC20 GLP-1(9-36) PAM EC50.
T1 construct: host or cells: GLP-1R CRE-bla CHO-K1 cells
Format: cell-based
Outline: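 Positive allosteric modulation read as cAMP accumulation: compound titrations (12 points) combined with an EC20 level of GLP-1(9-36) on CHO-K1 GLP-1R CRE-bla cells, IBMX present, 30 min, 37 °C, pH 7.4 buffer. Luminescence converted to cAMP via standards; non-linear fit gave EC50 and Emax.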

T1 sequence (P43220 24-463): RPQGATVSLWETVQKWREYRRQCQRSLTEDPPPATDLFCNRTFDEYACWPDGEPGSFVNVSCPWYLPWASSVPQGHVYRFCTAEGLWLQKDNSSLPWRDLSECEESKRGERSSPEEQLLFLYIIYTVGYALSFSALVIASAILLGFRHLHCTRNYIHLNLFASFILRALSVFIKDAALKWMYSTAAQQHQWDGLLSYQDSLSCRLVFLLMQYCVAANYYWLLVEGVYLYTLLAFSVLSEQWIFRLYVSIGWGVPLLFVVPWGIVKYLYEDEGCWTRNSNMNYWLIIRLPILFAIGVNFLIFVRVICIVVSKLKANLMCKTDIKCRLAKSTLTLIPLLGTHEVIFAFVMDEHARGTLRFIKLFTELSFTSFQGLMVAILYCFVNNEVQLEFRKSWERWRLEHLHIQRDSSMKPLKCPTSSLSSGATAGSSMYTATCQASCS
T1 sequence (P01275 100-127 partner limits assumed): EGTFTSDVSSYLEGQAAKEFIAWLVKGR

EC50	SMILES
800 to 2500 nM	CC(C)(C)CCCOc1ccc(-c2cnc(-c3ccc(C[C@H](NC(=O)c4ccc(C(C)(C)C)s4)C(=O)NC(C(=O)O)C(O)c4ccccc4)cc3)nc2)cc1 (some centres unmarked) [Compound 937]
5000 to 10000 nM	CC(C)(C)c1ccc(C(=O)N[C@@H](Cc2ccc(-c3ncc(-c4ccc(OC5CCCCC5)cc4)cn3)cc2)C(=O)NC(C(=O)O)C(O)c2ccccc2)s1 (some centres unmarked) [Compound 938]
2500 to 5000 nM	CC(C)(C)c1ccc(C(=O)N[C@@H](Cc2ccc(-c3ncc(-c4ccc(OCCC5CCCC5)cc4)cn3)cc2)C(=O)NC(C(=O)O)C(O)c2ccccc2)s1 (some centres unmarked) [Compound 939]
800 to 2500 nM	CC(C)(C)c1ccc(C(=O)N[C@@H](Cc2ccc(-c3ncc(-c4ccc(OCC5CCCC5)cc4)cn3)cc2)C(=O)NC(C(=O)O)C(O)c2ccccc2)s1 (some centres unmarked) [Compound 940]
2500 to 5000 nM	CC(C)(C)CCOc1ccc(-c2cnc(-c3ccc(C[C@H](NC(=O)c4ccc(C(C)(C)C)s4)C(=O)NC(C(=O)O)C(O)c4ccccc4)cc3)nc2)cc1 (some centres unmarked) [Compound 941]
2500 to 5000 nM	CC(C)CCOc1ccc(-c2cnc(-c3ccc(C[C@H](NC(=O)c4ccc(C(C)(C)C)s4)C(=O)NC(C(=O)O)C(O)c4ccccc4)cc3)nc2)cc1 (some centres unmarked) [Compound 942]
800 to 2500 nM	CCCCCCOc1ccc(-c2cnc(-c3ccc(C[C@H](NC(=O)c4ccc(C(C)(C)C)s4)C(=O)NC(C(=O)O)C(O)c4ccccc4)cc3)nc2)cc1 (some centres unmarked) [Compound 943]
< 800 nM	CC(C)(C)CCCOc1ccc(-c2cnc(-c3ccc(C[C@H](NC(=O)c4ccc(C(C)(C)C)s4)C(=O)N4CC(C(=O)O)C4)cc3)nc2)cc1 [Compound 944]
< 800 nM	CC(C)(C)c1ccc(C(=O)N[C@@H](Cc2ccc(-c3ncc(-c4ccc(OCCC5CCCCC5)cc4)cn3)cc2)C(=O)N2CC(C(=O)O)C2)s1 [Compound 945]
2500 to 5000 nM	CCCCCCCOc1ccc(-c2cnc(-c3ccc(C[C@H](NC(=O)c4ccc(C(C)(C)C)s4)C(=O)O)cc3)c(C)c2)cc1 [Compound 946]
800 to 2500 nM	CCCCCCCOc1ccc(-c2cnc(-c3ccc(C[C@H](NC(=O)c4ccc(CC)cc4)C(=O)NC(C(=O)O)C(O)c4ccccc4)cc3)nc2)cc1 (some centres unmarked) [Compound 947]
2500 to 5000 nM	CCCCCCCOc1ccc(-c2cnc(-c3ccc(C[C@H](NC(=O)c4ccc(C(F)(F)F)s4)C(=O)NC(C(=O)O)C(O)c4ccccc4)cc3)nc2)cc1 (some centres unmarked) [Compound 948]
800 to 2500 nM	CCCCCCCOc1ccc(-c2cnc(-c3ccc(C[C@H](NC(=O)c4ccc(OCC)cc4)C(=O)NC(C(=O)O)C(O)c4ccccc4)cc3)nc2)cc1 (some centres unmarked) [Compound 949]
800 to 2500 nM	CCCCCCCOc1ccc(-c2cnc(-c3ccc(C[C@H](NC(=O)c4ccc(OC(C)C)cc4)C(=O)NC(C(=O)O)C(O)c4ccccc4)cc3)nc2)cc1 (some centres unmarked) [Compound 950]
800 to 2500 nM	CCCCCCCOc1ccc(-c2cnc(-c3ccc(C[C@H](NC(=O)c4ccc(C(C)C)cc4)C(=O)NC(C(=O)O)C(O)c4ccccc4)cc3)nc2)cc1 (some centres unmarked) [Compound 951]
2500 to 5000 nM	CCCCCCCOc1ccc(-c2cnc(-c3ccc(C[C@H](NC(=O)c4ccc(C(C)(C)C)cc4OC)C(=O)NC(C(=O)O)C(O)c4ccccc4)cc3)nc2)cc1 (some centres unmarked) [Compound 952]
800 to 2500 nM	CCCCCCCOc1ccc(-c2cnc(-c3ccc(C[C@H](NC(=O)c4cnc(C(C)(C)C)nc4)C(=O)NC(C(=O)O)C(O)c4ccccc4)cc3)nc2)cc1 (some centres unmarked) [Compound 953]
800 to 2500 nM	CCCCCCCOc1ccc(-c2cnc(-c3ccc(C[C@H](NC(=O)c4cnn(C(C)(C)C)c4)C(=O)NC(C(=O)O)C(O)c4ccccc4)cc3)nc2)cc1 (some centres unmarked) [Compound 954]
5000 to 10000 nM	CCCCCCCOc1ccc(-c2cnc(-c3ccc(C[C@H](NC(=O)/C=C/C(C)(C)C)C(=O)NC(C(=O)O)C(O)c4ccccc4)cc3)nc2)cc1 (some centres unmarked) [Compound 955]
2500 to 5000 nM	CCCCCCCOc1ccc(-c2cnc(-c3ccc(C[C@H](NC(=O)c4ccc(C5CC5)s4)C(=O)NC(C(=O)O)C(O)c4ccccc4)cc3)nc2)cc1 (some centres unmarked) [Compound 956]
800 to 2500 nM	CCCCCCCOc1ccc(-c2cnc(-c3ccc(C[C@H](NC(=O)c4ccc(CC)s4)C(=O)NC(C(=O)O)C(O)c4ccccc4)cc3)nc2)cc1 (some centres unmarked) [Compound 957]
800 to 2500 nM	CCCCCCCOc1ccc(-c2cnc(-c3ccc(C[C@H](NC(=O)c4ccc(C(C)C)s4)C(=O)NC(C(=O)O)C(O)c4ccccc4)cc3)nc2)cc1 (some centres unmarked) [Compound 958]
800 to 2500 nM	CCCCCCCOc1ccc(-c2cnc(-c3ccc(C[C@H](NC(=O)c4ccc(CCC)s4)C(=O)NC(C(=O)O)C(O)c4ccccc4)cc3)nc2)cc1 (some centres unmarked) [Compound 959]
800 to 2500 nM	CCCCCCCOc1ccc(-c2cnc(-c3ccc(C[C@H](NC(=O)c4ccc(O)c(F)c4)C(=O)NC(C(=O)O)C(O)c4ccccc4)cc3)nc2)cc1 (some centres unmarked) [Compound 960]
2500 to 5000 nM	CCCCCCCOc1ccc(-c2cnc(-c3ccc(C[C@H](NC(=O)c4ccc(C(C)(C)C)s4)C(=O)NCCCN4CCN(C)CC4)cc3)nc2)cc1 [Compound 961]
800 to 2500 nM	CCCCCCCOc1ccc(-c2cnc(-c3ccc(C[C@H](NC(=O)c4ccc(C(C)(C)C)s4)C(=O)NCCCN(C)C)cc3)nc2)cc1 [Compound 962]
5000 to 10000 nM	CCCCCCCOc1ccc(-c2cnc(-c3ccc(C[C@H](NC(=O)c4ccc(C(C)(C)C)s4)C(=O)N4CCCN(C)CC4)cc3)nc2)cc1 [Compound 963]

EC50	SMILES
2500 to 5000 nM	CCCCCCCOc1ccc(-c2cnc(-c3ccc(C[C@H](NC(=O)c4ccc(C(C)(C)C)s4)C(=O)NCCCN4CCOCC4)cc3)nc2)cc1 [Compound 964]
5000 to 10000 nM	CCCCCCCOc1ccc(-c2cnc(-c3ccc(C[C@H](NC(=O)c4ccc(C(C)(C)C)s4)C(=O)Nc4ccc(C(F)(F)F)cc4)cc3)nc2)cc1 [Compound 965]
5000 to 10000 nM	CCCCCCCOc1ccc(-c2cnc(-c3ccc(C[C@H](NC(=O)c4ccc(C(C)(C)C)s4)C(=O)N4CCCNCC4)cc3)nc2)cc1 [Compound 966]
2500 to 5000 nM	CCCCCCCOc1ccc(-c2cnc(-c3ccc(C[C@H](NC(=O)c4ccc(C(C)(C)C)s4)C(=O)N4CCN(c5ncccn5)CC4)cc3)nc2)cc1 [Compound 967]
5000 to 10000 nM	CCCCCCCOc1ccc(-c2cnc(-c3ccc(C[C@H](NC(=O)c4ccc(C(C)(C)C)s4)C(=O)NCC4CC4)cc3)nc2)cc1 [Compound 968]
2500 to 5000 nM	CCCCCCCOc1ccc(-c2cnc(-c3ccc(C[C@H](NC(=O)c4ccc(C(C)(C)C)s4)C(=O)N(CC)CCO)cc3)nc2)cc1 [Compound 969]
2500 to 5000 nM	CCCCCCCOc1ccc(-c2cnc(-c3ccc(C[C@H](NC(=O)c4ccc(C(C)(C)C)s4)C(=O)NCCCN(CC)CC)cc3)nc2)cc1 [Compound 970]
2500 to 5000 nM	CCCCCCCOc1ccc(-c2cnc(-c3ccc(C[C@H](NC(=O)c4ccc(C(C)(C)C)s4)C(=O)N(C)CC4CCN(CCOC)CC4)cc3)nc2)cc1 [Compound 971]
5000 to 10000 nM	CCCCCCCOc1ccc(-c2cnc(-c3ccc(C[C@H](NC(=O)c4ccc(C(C)(C)C)s4)C(=O)N4CC(C(N)=O)C4)cc3)nc2)cc1 [Compound 972]
5000 to 10000 nM	CCCCCCCOc1ccc(-c2cnc(-c3ccc(C[C@H](NC(=O)c4ccc(C(C)(C)C)s4)C(=O)NC[C@H]4CCCN4C)cc3)nc2)cc1 [Compound 973]
2500 to 5000 nM	CCCCCCCOc1ccc(-c2cnc(-c3ccc(C[C@H](NC(=O)c4ccc(C(C)(C)C)s4)C(=O)N4CC(C(=O)N(C)C)C4)cc3)nc2)cc1 [Compound 974]
5000 to 10000 nM	CCCCCCCOc1ccc(-c2cnc(-c3ccc(C[C@H](NC(=O)c4ccc(C(C)(C)C)s4)C(=O)N4CC(CN(C)C)C4)cc3)nc2)cc1 [Compound 975]
2500 to 5000 nM	CCCCCCCOc1ccc(-c2cnc(-c3ccc(C[C@H](NC(=O)c4ccc(C(C)(C)C)s4)C(=O)N4CC(N(C)C)C4)cc3)nc2)cc1 [Compound 976]
5000 to 10000 nM	CCCCCCCOc1ccc(-c2cnc(-c3ccc(C[C@H](NC(=O)c4ccc(C(C)(C)C)s4)C(=O)N4CC[C@H](O)C4)cc3)nc2)cc1 [Compound 977]
800 to 2500 nM	CCCCCCCOc1ccc(-c2cnc(-c3ccc(C[C@H](NC(=O)c4ccc(C(C)(C)C)s4)C(=O)N4CC(c5nn[nH]n5)C4)cc3)nc2)cc1 [Compound 978]
2500 to 5000 nM	CCCCCCCOc1ccc(-c2cnc(-c3ccc(C[C@H](NC(=O)Cc4ccc(OCCCC)cc4)C(=O)N[C@H](C)C(=O)O)cc3)nc2)cc1 [Compound 979]
800 to 2500 nM	CCCCCCCOc1ccc(-c2cnc(-c3ccc(C[C@H](NC(=O)c4ccc5c(c4)OCCO5)C(=O)N[C@H](C)C(=O)O)cc3)nc2)cc1 [Compound 980]
2500 to 5000 nM	CCCCCCCOc1ccc(-c2cnc(-c3ccc(C[C@H](NC(=O)c4ccc(C(=O)c5ccccc5)cc4)C(=O)N[C@H](C)C(=O)O)cc3)nc2)cc1 [Compound 981]
5000 to 10000 nM	CCCCCCCOc1ccc(-c2cnc(-c3ccc(C[C@H](NC(=O)c4ccc(OCCC)cc4)C(=O)N[C@H](C)C(=O)O)cc3)nc2)cc1 [Compound 982]
5000 to 10000 nM	CCCCCCCOc1ccc(-c2cnc(-c3ccc(C[C@H](NC(=O)c4ccc(O)c(F)c4)C(=O)N[C@H](C)C(=O)O)cc3)nc2)cc1 [Compound 983]
2500 to 5000 nM	CCCCCCCOc1ccc(-c2cnc(-c3ccc(C[C@H](NC(=O)c4ccc(C(C)(C)C)s4)C(=O)NC4CCNC4)cc3)nc2)cc1 (some centres unmarked) [Compound 984]
2500 to 5000 nM	CCCCCCCOc1ccc(-c2cnc(-c3ccc(C[C@H](NC(=O)c4ccc(C(C)(C)C)s4)C(=O)NC4CNC4)cc3)nc2)cc1 [Compound 985]
800 to 2500 nM	CCCCCCCOc1ccc(-c2cnc(-c3ccc(C[C@H](NC(=O)c4ccc(C(C)(C)C)s4)C(=O)NCC4(C)CNC4)cc3)nc2)cc1 [Compound 986]
5000 to 10000 nM	CCCCCCCOc1ccc(-c2cnc(-c3ccc(C[C@H](NC(=O)c4ccc(C(C)(C)C)s4)C(=O)N4CC[C@@H](N)C4)cc3)nc2)cc1 [Compound 987]
5000 to 10000 nM	CCCCCCCOc1ccc(-c2cnc(-c3ccc(C[C@H](NC(=O)c4ccc(C(C)(C)C)s4)C(=O)N4CCC(C)(N)C4)cc3)nc2)cc1 (some centres unmarked) [Compound 988]
800 to 2500 nM	CCCCCCCOc1ccc(-c2cnc(-c3ccc(C[C@H](NC(=O)c4ccc(C(C)(C)C)s4)C(=O)N4CC(CCN)C4)cc3)nc2)cc1 [Compound 989]
